Assay results as given in US20100105674A1, “Chemical Compounds” (priority 2007, published 2010).

molecular target: T1, Wee1 (Homo sapiens, UniProt P30291); experiment: Cell assay for Wee1 inhibitory activity (cell-based ELISA, phospho-cdc2(Tyr15)); conditions: Hela cells synchronized using aphidicolin; phosphorylation level of cdc2 (Tyr15) by sandwich ELISA
T1 construct: endogenous in cells; host or cells: HeLa
Text: Cell Assay for Wee1 Inhibitory Activity
Wee1 inhibitory activity can be measured using a cell-based ELISA assay. Hela cells are synchronized using aphidicolin, which blocks the entry of cells into S-phase. Cells in G2-M transition phase are then obtained by releasing the cells from aphidicolin treatment for approximately 7-9 hrs. The phosphorylation level of the Wee1 target cdc2 may then be measured by sandwich ELISA using an anti-cdc2 antibody and an anti-phospho-cdc2(Tyr15) antibody. This cell assay was used to calculate a pIC50 for the compounds described in Examples 2, 3, and 19.

T1 sequence (P30291 whole entry): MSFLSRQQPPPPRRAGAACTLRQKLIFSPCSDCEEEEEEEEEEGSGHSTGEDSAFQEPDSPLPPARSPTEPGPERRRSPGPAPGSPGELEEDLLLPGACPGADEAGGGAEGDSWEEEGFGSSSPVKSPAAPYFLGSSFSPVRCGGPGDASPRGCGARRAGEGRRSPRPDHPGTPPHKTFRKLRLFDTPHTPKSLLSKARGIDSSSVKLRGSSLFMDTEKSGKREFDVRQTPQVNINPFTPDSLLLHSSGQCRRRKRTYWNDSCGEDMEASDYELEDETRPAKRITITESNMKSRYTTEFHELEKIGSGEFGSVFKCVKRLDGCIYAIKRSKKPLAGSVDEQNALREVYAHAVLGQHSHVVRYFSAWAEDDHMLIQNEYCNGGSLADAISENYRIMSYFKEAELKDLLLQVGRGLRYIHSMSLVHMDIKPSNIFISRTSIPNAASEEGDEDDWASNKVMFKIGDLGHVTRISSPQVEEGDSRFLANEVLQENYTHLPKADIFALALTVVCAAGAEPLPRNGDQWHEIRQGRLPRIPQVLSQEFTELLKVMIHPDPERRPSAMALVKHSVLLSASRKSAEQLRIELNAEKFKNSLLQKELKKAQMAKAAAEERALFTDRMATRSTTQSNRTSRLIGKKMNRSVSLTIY

Row | Structure (SMILES) | IC50
1 | CCN(CC)CCOc1ccc(Nc2ncc(Br)c(Nc3ccccc3OC)n2)cc1 [Example 2, 5-bromo-N^2-(4-{[2-(diethylamino)ethyl]oxy}phenyl)-N^4-[2-(methyloxy)phenyl]-2,4-pyrimidinediamine] | ≤ 10 µM
2 | COc1ccccc1Nc1nc(Nc2cccc(OCCN(C)C)c2)ncc1Br [Example 19, 5-bromo-N^2-(3-{[2-(dimethylamino)ethyl]oxy}phenyl)-N^4-[2-(methyloxy)phenyl]-2,4-pyrimidinediamine] | ≤ 10 µM
3 | CCC(C)NC(=O)c1ccccc1Nc1nc(Nc2cccc(CCN3CCOCC3)c2)ncc1Br (stereo not drawn) [Example 3, 2-{[5-bromo-2-({3-[2-(4-morpholinyl)ethyl]phenyl}amino)-4-pyrimidinyl]amino}-N-(1-methylpropyl)benzamide] | ≤ 10 µM
